Data on four compounds can be found in patent publication US7126676B2, “Spectral analysis of light scattered from clotting blood” (priority 2002, dated 2006).

In series [1] the test system is clotting native whole blood. The conditions noted are these: for Ratio of Post-treatment to Pre-treatment Value of Logistic Parameter B: two hours after ingestion, same subject.
For series [2] the following is noted: rofecoxib-treated arm compared with naproxen; cited from earlier work.
The subject of a further series is clotting. The conditions noted are these: cited from earlier work.

Like-named read-outs stand apart in the source and are kept apart here.

As for `CC(=O)Oc1ccccc1C(=O)O` [Aspirin], the “Ratio of Post-treatment to Pre-treatment Value of Logistic Parameter B” value (from here on “Ratio … of Logistic Parameter B”) in series [1] (470 nm, Aspirin 325 mg single dose) is on record as 4.48; in series [1] (550 nm, Aspirin 325 mg single dose), 1.45; in series [1] (610 nm, Aspirin 325 mg single dose) it was 2.18; in series [1] (700 nm, Aspirin 325 mg single dose) it was 1.85.

In the case of `Cc1ccc(-c2cc(C(F)(F)F)nn2-c2ccc(S(N)(=O)=O)cc2)cc1` [Celecoxib], the “Ratio … of Logistic Parameter B” value in series [1] (470 nm, Celecoxib 400 mg single dose) was found to be 0.087; in series [1] (550 nm, Celecoxib 400 mg single dose), 0.154; in series [1] (610 nm, Celecoxib 400 mg single dose) it was 0.055; in series [1] (700 nm, Celecoxib 400 mg single dose) it was 0.107.

Regarding `COc1ccc2cc([C@H](C)C(=O)O)ccc2c1` [Naproxen], the “Ratio … of Logistic Parameter B” value is given as 1.63 in series [1] (470 nm, Naproxen 600 mg single dose); 0.03 in series [1] (550 nm, Naproxen 600 mg single dose); 0.34 in series [1] (610 nm, Naproxen 600 mg single dose); 0.28 in series [1] (700 nm, Naproxen 600 mg single dose). The “Effect on clotting as determined by the invention, in words” value was “aspirin-like effect” in series [1] (at 470 nm) and “celecoxib-like effect” in series [1] (at the other wavelengths (550, 610, 700 nm)).

As for `CS(=O)(=O)c1ccc(C2=C(c3ccccc3)C(=O)OC2)cc1` [rofecoxib], in series [2], the “Incidence of thrombotic events” value is recorded as “higher incidence of thrombotic events”. Also, the “Effect on clotting as measured by routine techniques” value in the series with clotting is listed as “Neither rofecoxib nor celecoxib has any effect on clotting”.
